Values of other authors in patent US9636319B1, “Fumarate ester dosage forms” (priority 2015, dated 2017).
Counter-ions that a name gives are not always drawn.

Experiments:
Human plasma protein = details: independent of concentration
[1] = system: Nuclear factor (erythroid-derived 2)-like 2 (Nrf2) pathway; details: in vitro and in vivo in animals and humans

Tmax without meal (MMF in plasma, before the delay by a meal)	Tmax with meal (MMF in plasma, high-fat, high-calorie meal)	median Tmax of MMF ([…])	effect of a meal on AUC (high-fat, high-calorie meal)	decrease of Cmax by a meal (high-fat, high-calorie meal, MMF in plasma)	terminal half-life (human, in vivo)	involvement of the cytochrome P450 (CYP) system in metabolism (metabolism through the tricarboxylic acid (TCA) cycle)	Human plasma protein binding (Human plasma protein)	quantifiability in plasma following oral administration (human, in vivo, po)	SMILES	dose dependence of Cmax and AUCoverall (dose range 120 mg to 360 mg)	reduction in the incidence of flushing (fed / postprandial state)	circulating MMF at 24 hours (human, in vivo)	Nrf2 pathway activation [1]
2.0 h	5.5 h	2 to 2.5 h	did not affect	40%	approximately 1 hour	no involvement	27-45%		COC(=O)/C=C/C(=O)O [MMF, monomethyl fumarate]	increased approximately dose proportionally	approximately 25%	no circulating MMF is present at 24 hours in the majority of individuals	
								not quantifiable	COC(=O)/C=C/C(=O)OC [DMF, dimethyl fumarate]				activate
